Experimental data published in ChEMBL document CHEMBL5528025, “Design, synthesis and biological evaluation of carbamate derivatives incorporating multifunctional carrier scaffolds as pseudo-irreversible cholinesterase inhibitors for the treatment of Alzheimer's disease” (Eur J Med Chem, 2024).
Activity calls are given as the source filed them. No cut-off for these calls is given here.

Legend:
[1] = tested on: PC-12; experiment: Inhibition of H2O2 induced ROS production in rat PC-12 cells assessed as reduction in intracellular ROS level at 10 uM pretreated for 1 hr followed by H2O2 stimulation and measured after 24 hrs by confocal microscopic analysis; type: functional, cell-based; conditions: time 25.0 hrs
[2] = Hepatotoxicity in IG dosed ICR mouse measured after 48 hrs; type: toxicity, organism-based; conditions: in vivo, po
[3] = tested on: Mus musculus; experiment: Antialzheimer activity in amyloid beta (1 to 42 residues) induced ICR mouse model assessed as reduction in learning deficits by measuring reduction in path search distance at 5 to 20 mg/kg, ip administered daily and measured on day 4 by morris water maze test; type: functional, organism-based; conditions: dose 5-20 mg/kg, time 4.0 day
[4] = biological target: T1, Cholinesterase (Homo sapiens, UniProt P06276)
Description: Inhibition of human serum BuChE using butyrylthiocholine iodide as substrate incubated for 10 mins followed by substrate addition and measured after 10 mins by DTNB reagent based Ellman's method

[5] = Acute toxicity in ICR mouse assessed as aberrant behavior at 100 to 500 mg/kg, ip measured after 14 days; type: organism-based; conditions: in vivo, 336 h, dose 100-500 mg/kg, time 14 day
[6] = Acute toxicity in ICR mouse assessed as histopathological change in brain at 100 to 500 mg/kg, ip measured after 14 days by H and E staining based analysis; type: organism-based; conditions: in vivo, 336 h, dose 100-500 mg/kg, time 14 day
[7] = biological target: T2, Acetylcholinesterase (Homo sapiens, UniProt P22303); experiment: Pseudo-irreversible inhibition of human erythrocyte AChE at 4 times IC50 preincubated for 20 mins followed by dialysis and measured after 12 hrs; type: cell-based
[8] = tested on: Mus musculus; experiment: Antialzheimer activity in amyloid beta (1 to 42 residues) induced ICR mouse model assessed as reduction in learning deficits by measuring increase in trajectory within target quadrant at 5 to 20 mg/kg, ip administered daily and measured after 13 to 17 days by morris water maze test; type: functional, organism-based; conditions: dose 5-20 mg/kg, time 13-17 day
[9] = tested on: Mus musculus; experiment: Antialzheimer activity in amyloid beta (1 to 42 residues) induced ICR mouse model assessed as reduction in learning deficits by measuring increase in distance traveled within target quadrant at 5 to 20 mg/kg, ip administered daily and measured after 13 to 17 days by morris water maze test; type: functional, organism-based; conditions: dose 5-20 mg/kg, time 13-17 day
[10] = Cytotoxicity against rat PC-12 cells assessed as cell viability at 10 uM incubated for 24 hrs by CCK-8 assay relative to control; type: toxicity, cell-based; conditions: read-out: Activity
[11] = tested on: Mus musculus; experiment: Antialzheimer activity in amyloid beta (1 to 42 residues) induced ICR mouse model assessed as reduction in learning deficits by measuring increase in duration of time spent within target quadrant at 5 to 20 mg/kg, ip administered daily and measured after 13 to 17 days by morris water maze test; type: functional, organism-based; conditions: dose 5-20 mg/kg, time 13-17 day
[12] = tested on: Mus musculus; experiment: Antialzheimer activity in amyloid beta (1 to 42 residues) induced ICR mouse model assessed as increase in step through latency at 5 to 20 mg/kg, ip administered daily and measured on day 18 and 19 by passive avoidance test; type: functional, organism-based; conditions: dose 5-20 mg/kg, time 18-19 day
[13] = tested on: Mus musculus; experiment: Antialzheimer activity in amyloid beta (1 to 42 residues) induced ICR mouse model assessed as reduction in nerve damage by measuring increase in live neurons in hippocampal CA3 region at 20 mg/kg, ip administered daily by nissl staining based fluorescence microscopy; type: functional, organism-based
[14] = tested on: Mus musculus; experiment: Antialzheimer activity in ip dosed amyloid beta (1 to 42 residues) induced ICR mouse model assessed as reduction in learning deficits by measuring increase in alternation performance administered daily and measured on day 12 by Y-maze test; type: functional, organism-based; conditions: dose 5-20 mg/kg, time 12.0 day
[15] = Acute toxicity in ICR mouse assessed as histopathological change in spleen at 100 to 500 mg/kg, ip measured after 14 days by H and E staining based analysis; type: organism-based; conditions: in vivo, 336 h, dose 100-500 mg/kg, time 14 day
[16] = tested on: PC-12; experiment: Neuroprotective activity against H2O2-induced rat PC-12 cells assessed as protection against H2O2-induced apoptosis by measuring live cells at 10 uM pretreated for 1 hr followed by H2O2 addition and measured after 24 hrs by Annexin V-FITC/PI staining based flow cytometry analysis (reference value: 63.2%); type: functional; conditions: time 25 hrs
[17] = biological target: T2, Acetylcholinesterase
Description: Inhibition of human erythrocyte AChE incubated for 10 mins

[18] = tested on: PC-12; experiment: Neuroprotective activity against H2O2-induced rat PC-12 cells assessed as protection against H2O2-induced apoptosis by measuring late apoptotic cells at 10 uM pretreated for 1 hr followed by H2O2 addition and measured after 24 hrs by Annexin V-FITC/PI staining based flow cytometry analysis (reference value: 7.97%); type: functional; conditions: time 25 hrs
[19] = Acute toxicity in ICR mouse assessed as histopathological change in liver at 100 to 500 mg/kg, ip measured after 14 days by H and E staining based analysis; type: organism-based; conditions: in vivo, 336 h, dose 100-500 mg/kg, time 14 day
[20] = tested on: Mus musculus; experiment: Antialzheimer activity in amyloid beta (1 to 42 residues) induced ICR mouse model assessed as reduction in nerve damage by measuring increase in live neurons in hippocampal CA1 region at 5 to 20 mg/kg, ip administered daily by nissl staining based fluorescence microscopy; type: functional, organism-based; conditions: dose 5-20 mg/kg
[21] = tested on: BV-2; experiment: Cytotoxicity against mouse BV-2 cells assessed as reduction in cell viability at 5 uM incubated for 24 hrs by CCK-8 assay; type: toxicity, cell-based; conditions: bv-2, 24 h
[22] = tested on: BV-2; experiment: Antineuroinflammatory activity in LPS-induced mouse BV-2 cells assessed as increase in IL-4 level at 1.25 to 5 uM incubated for 24 hrs by ELISA; type: functional, cell-based; conditions: dose 1.25-5 µM
[23] = Acute toxicity in ICR mouse assessed as abnormal dietary patterns at 100 to 500 mg/kg, ip measured after 14 days; type: organism-based; conditions: in vivo, 336 h, dose 100-500 mg/kg, time 14 day
[24] = Acute toxicity in ICR mouse assessed as histopathological change in heart at 100 to 500 mg/kg, ip measured after 14 days by H and E staining based analysis; type: organism-based; conditions: in vivo, 336 h, dose 100-500 mg/kg, time 14 day
[25] = Acute toxicity in ICR mouse assessed as reduction in body weight at 100 to 500 mg/kg, ip measured after 2 days; type: organism-based; conditions: in vivo, 48 h, dose 100-500 mg/kg, time 2 day
[26] = biological target: T1, Cholinesterase; experiment: Pseudo-irreversible inhibition of human serum BuChE using butyrylthiocholine iodide as substrate at 4 times IC50 preincubated for 20 mins followed by dialysis and measured after 12 hrs by DTNB reagent based Ellman's method
[27] = tested on: Mus musculus; experiment: In vivo inhibition of AChE in scopolamine treated ICR mouse assessed as reduction in AChE level in brain at 5 to 20 mg/kg, ip preadministered with scopolamine for 7 days followed by compound administration and measured after 7 days; type: functional, organism-based; conditions: dose 5-20 mg/kg, time 7.0 day
[28] = tested on: Mus musculus; experiment: In vivo inhibition of BuChE in scopolamine treated ICR mouse assessed as reduction in BuChE level in brain at 20 mg/kg, ip preadministered with scopolamine for 7 days followed by compound administration and measured after 7 days; type: functional, organism-based; conditions: time 7.0 day
[29] = tested on: Mus musculus; experiment: Antialzheimer activity in amyloid beta (1 to 42 residues) induced ICR mouse model assessed as reduction in learning deficits by measuring reduction in latency at 5 to 20 mg/kg, ip administered daily and measured for 3 days by morris water maze test; type: functional, organism-based; conditions: dose 5-20 mg/kg, time 3.0 day

T1 sequence (P06276 whole entry): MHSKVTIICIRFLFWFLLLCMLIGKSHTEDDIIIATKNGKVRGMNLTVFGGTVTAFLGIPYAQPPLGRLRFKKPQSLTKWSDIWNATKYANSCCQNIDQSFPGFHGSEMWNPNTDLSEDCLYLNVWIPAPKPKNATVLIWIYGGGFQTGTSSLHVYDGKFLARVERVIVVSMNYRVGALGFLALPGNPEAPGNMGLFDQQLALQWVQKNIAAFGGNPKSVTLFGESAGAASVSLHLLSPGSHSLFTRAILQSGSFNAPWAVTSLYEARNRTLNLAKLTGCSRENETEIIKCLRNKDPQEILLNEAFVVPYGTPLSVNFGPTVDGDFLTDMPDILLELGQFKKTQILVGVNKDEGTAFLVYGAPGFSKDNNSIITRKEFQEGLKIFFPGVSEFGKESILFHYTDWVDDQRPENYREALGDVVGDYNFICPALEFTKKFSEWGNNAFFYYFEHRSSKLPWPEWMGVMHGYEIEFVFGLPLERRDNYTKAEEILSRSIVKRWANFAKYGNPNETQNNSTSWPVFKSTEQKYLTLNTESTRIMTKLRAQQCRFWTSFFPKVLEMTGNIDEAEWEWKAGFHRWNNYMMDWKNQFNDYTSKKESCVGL
T2 sequence (P22303 whole entry, the tested form may be a part): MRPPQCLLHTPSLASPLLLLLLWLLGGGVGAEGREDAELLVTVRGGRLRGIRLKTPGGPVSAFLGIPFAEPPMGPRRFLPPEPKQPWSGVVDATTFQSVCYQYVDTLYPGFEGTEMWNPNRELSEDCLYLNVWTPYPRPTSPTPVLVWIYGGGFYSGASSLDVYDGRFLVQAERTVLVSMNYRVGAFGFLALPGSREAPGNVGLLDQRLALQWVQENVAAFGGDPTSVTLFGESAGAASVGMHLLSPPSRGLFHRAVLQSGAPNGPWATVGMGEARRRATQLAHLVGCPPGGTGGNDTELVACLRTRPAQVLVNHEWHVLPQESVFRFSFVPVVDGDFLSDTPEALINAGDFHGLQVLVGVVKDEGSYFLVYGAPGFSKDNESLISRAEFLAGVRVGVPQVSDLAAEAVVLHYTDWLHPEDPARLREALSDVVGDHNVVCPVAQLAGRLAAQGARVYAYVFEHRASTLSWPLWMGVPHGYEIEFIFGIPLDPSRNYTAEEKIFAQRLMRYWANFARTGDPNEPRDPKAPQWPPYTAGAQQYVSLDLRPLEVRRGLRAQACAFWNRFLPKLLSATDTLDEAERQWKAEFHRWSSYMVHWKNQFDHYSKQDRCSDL

O=C(NCCCCCCNc1c2c(nc3cc(F)ccc13)CCCC2)Oc1ccc(-c2cc3cccnc3[nH]2)cc1
inhibition [1]: Active | LD50 at 48 h [2]: > 500 mg/kg | Activity [3]: Active | IC50 [4]: 48 nM | Activity [5]: Non-Toxic | Activity [6]: Non-Toxic | inhibition [7]: Active | Activity [8]: Active | Activity [9]: Active | viability at 24 h, 10 µM [10]: > 90% | Activity [11]: Active | Activity [12]: Active | Activity [13]: Active | Activity [14]: Dose-Dependent Effect | Activity [15]: Non-Toxic | Activity [16]: 81.3% | IC50 [17]: 30.4 nM | Activity [18]: 5.8% | Activity [19]: Non-Toxic | Activity [20]: Active | Activity [21]: Non-Toxic | Activity [22]: Active | Activity [23]: Non-Toxic | Activity [24]: Non-Toxic | Activity [25]: Toxic | inhibition [26]: Active | inhibition [27]: Active | inhibition [28]: Active | Activity [29]: Active
